Data on 5 compounds can be found in patent EP0418099B1, “Process of preparation of 10, 11-Methylenedioxy-20 (RS) camptothecin and 10, 11-methylenedioxy-20 (S) - camptothecin analog” (RESEARCH TRIANGLE INSTITUTE, priority 1989, dated 1991).

Values after ≈ are worked out from the molar mass of the structure shown. Where a name gives a salt, the structure may show the parent alone.

In assay [1] the test system is human colorectal tumors. Put plainly: Human colon tumor histioculture, inhibition of cell proliferation. The note with it: concentration inhibiting by 50% the incorporation of [H]thymidine into DNA, tumors exposed to compounds for 24 hours, then thymidine for 3 days. The format is cell-based. The source says: As used herein, the term "cancer" is synonymous with the terms "malignant tumor" and more generally "tumor". […] See H.L. Davis, Chemotherapy of Large Bowel Cancer, Cancer (Phila.) 50: 2638-2646 (1982); J.R. Neefe and P.S. Schein, Chapter 43: The Management of Disseminated Large-Bowel Cancer in Principals of Cancer Treatment, page 402, ed. S.K. Carter, E. Glatstein and R.B. Livingston, McGraw-Hill Co., 1982; K. Mekhail-Ishak, Cancer Research, 49: 4866-4869 (1989) and P.J. Ferguson and Y.C. Cheng, Cancer Research, 49: 1148-1153 (1989).
Inhibition of tumor cell proliferation was performed in vitro on human colorectal tumors obtained from surgery or biopsy, as described by Vescio et al (Proc. Nat'l. Acad. Sci. USA 84:5029-5033, 1987) with the following modifications: Tumors were cultured 1 day prior to drug addition; tumors were exposed to compounds for 24 hours, washed, and then exposed to ^3[H]thymidine for 3 days.

The target of assay [2] is topoisomerase I (Bos taurus, UniProt A0AAA9TV68). The note with it: relative to camptothecin; cited from earlier work.
Sequence of topoisomerase I (A0AAA9TV68 entry or part of it): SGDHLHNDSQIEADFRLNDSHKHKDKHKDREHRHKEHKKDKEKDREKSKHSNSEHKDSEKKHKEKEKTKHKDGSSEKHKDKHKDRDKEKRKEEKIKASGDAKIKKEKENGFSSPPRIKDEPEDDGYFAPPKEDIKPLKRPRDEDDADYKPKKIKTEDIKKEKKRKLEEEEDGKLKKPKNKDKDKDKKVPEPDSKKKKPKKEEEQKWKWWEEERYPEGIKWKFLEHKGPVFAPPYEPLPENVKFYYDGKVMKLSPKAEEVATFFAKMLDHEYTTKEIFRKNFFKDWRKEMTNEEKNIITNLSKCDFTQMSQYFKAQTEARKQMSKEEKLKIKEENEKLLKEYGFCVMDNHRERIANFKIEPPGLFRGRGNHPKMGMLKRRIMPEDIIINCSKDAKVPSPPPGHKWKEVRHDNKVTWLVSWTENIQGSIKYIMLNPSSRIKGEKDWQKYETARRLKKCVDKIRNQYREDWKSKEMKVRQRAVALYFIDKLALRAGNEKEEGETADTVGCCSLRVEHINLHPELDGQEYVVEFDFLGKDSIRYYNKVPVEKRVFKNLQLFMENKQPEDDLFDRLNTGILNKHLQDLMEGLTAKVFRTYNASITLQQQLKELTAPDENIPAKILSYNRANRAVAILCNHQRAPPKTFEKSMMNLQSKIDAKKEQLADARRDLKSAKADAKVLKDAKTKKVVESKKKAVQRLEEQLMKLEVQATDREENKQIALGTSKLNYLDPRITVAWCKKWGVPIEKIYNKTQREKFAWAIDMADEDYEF
For assay [3] the following is noted: Wani et al., J. Med. Chem.; cited from earlier work.
For assay [4], the system named is 9PS. The assay is described as follows: In vitro cytotoxicity test 9PS. It is filed as cell-based. Conditions: 9PS test, compared with camptothecin. The source says:
(§1) 10,11-MDO-20(S)-CPT is also very potent in the L-1210 leukemia in vivo life prolongation assay. The synthesis of […] is known and described in Wani et al, J. Med. Chem., 29 (11), 2358-2363 (1986) and in U.S. 4,894,456.

Assay [5] deals with L-1210 leukemia. The assay is described as follows: L-1210 leukemia in vivo life prolongation assay. More on the design: species or system mice.
Excerpt: as §1

In assay [6] the test system is 9KB. The assay is described as follows: In vitro cytotoxicity test 9KB. The format is cell-based. The note with it: 9KB test, compared with camptothecin.
Excerpt: as §1

What is called IC50 is the concentration at which inhibition is half-maximal. High values mean lower potency, low ones higher potency. In the case of `CCC1(O)C(=O)OCc2c1cc1n(c2=O)Cc2cc3cc4c(cc3nc2-1)OCO4` (racemic) [Compound 3, 10,11-MDO-20(RS)-CPT], the IC50 in assay [1] is around 5 ng/mL (≈ 0.0127 µM). Besides, in assay [2], the “potency in the inhibition of topoisomerase I” value is listed as “three to five times the potency of camptothecin”.

As to `CCC1(O)C(=O)OCc2c1cc1n(c2=O)Cc2cc3cc(OC)c(OC)cc3nc2-1` (racemic) [10,11-dimethoxy-20(RS)-CPT], the activity result in assay [3] was “totally inactive”.

Take `CCC1(O)C(=O)OCc2c1cc1n(c2=O)Cc2cc3c(N)c4c(cc3nc2-1)OCO4` (racemic) [Compound 4, 9-AMINO-10,11-MDO-20(RS)-CPT]: the IC50 in assay [1] was around 5 ng/mL (≈ 0.0123 µM).

In assay [1], `CCC(O)(C(=O)O)c1cc2n(c(=O)c1CO)Cc1cc3cc4c(cc3nc1-2)OCO4` (racemic) [Compound 8, 10,11-MDO-20(RS)-CPT, Na^+ SALT] returned an IC50 of around 10 ng/mL.

Regarding `CC[C@@]1(O)C(=O)OCc2c1cc1n(c2=O)Cc2cc3cc4c(cc3nc2-1)OCO4` [Compound 2, 10,11-MDO-20(S)-CPT], the ED50 entry in assay [4] and in assay [6] was “equal to or more potent than camptothecin itself” throughout. In addition, the life prolongation result in assay [5] is given as “very potent”.
